Results as given in PubChem BioAssay (NCI).
Where “and” joins values, the source holds several entries; their conditions need not be identical. Equal entries are not always repeated.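 Cells were grown in 96-well plates and exposed to each compound for 48 hours at five concentrations; endpoints were interpolated linearly between bracketing concentrations, or set to the highest concentration if not reached. Here, GI50 denotes the concentration required for 50% inhibition of growth. Definition used: TGI = concentration required for complete inhibition of growth.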

Assays:
Experiment in all cases: DTP human tumour cell line panel, 48 h
EKVX NSCLC = test system: EKVX NSCLC
HOP-92 NSCLC = test system: HOP-92 NSCLC
KM12 colon = test system: KM12 colon
LOX IMVI melanoma = test system: LOX IMVI melanoma
MOLT-4 leukemia = test system: MOLT-4 leukemia
OVCAR-8 ovarian = test system: OVCAR-8 ovarian
RXF 393 renal = test system: RXF 393 renal
SF-295 CNS = test system: SF-295 CNS
SK-OV-3 ovarian = test system: SK-OV-3 ovarian
UACC-257 melanoma = test system: UACC-257 melanoma

C=CC(=O)N1CCC(Oc2cc3c(Nc4ccc(Cl)c(Cl)c4F)ncnc3cc2OC)CC1
GI50 (EKVX NSCLC): < 0.001 µM | TGI (EKVX NSCLC): 17.2 µM and > 10 µM | GI50 (HOP-92 NSCLC): 0.944 µM and 0.338 µM | TGI (HOP-92 NSCLC): 5.59 µM and 3.07 µM | GI50 (KM12 colon): 7.96 µM and 4.12 µM | TGI (KM12 colon): 27.1 µM and > 10 µM | GI50 (LOX IMVI melanoma): 1.55 µM and 1.2 µM | TGI (LOX IMVI melanoma): 5.73 µM and 2.84 µM | GI50 (MOLT-4 leukemia): 3.38 µM and 2.13 µM | TGI (MOLT-4 leukemia): 17.9 µM and > 8.44 µM | GI50 (OVCAR-8 ovarian): 4.52 µM and 1.91 µM | TGI (OVCAR-8 ovarian): 28.6 µM and > 10 µM | GI50 (RXF 393 renal): 0.596 µM and 0.81 µM | TGI (RXF 393 renal): 2.76 µM and 3.87 µM | GI50 (SF-295 CNS): 3.78 µM and 2.21 µM | TGI (SF-295 CNS): 17.3 µM and > 10 µM | GI50 (SK-OV-3 ovarian): < 0.001 µM | GI50 (UACC-257 melanoma): 11.5 µM and 6.67 µM | TGI (UACC-257 melanoma): 31.7 µM and > 10 µM

CC(=O)OC1OC([C@H]2c3cccc(O)c3C(=O)c3c(O)cc(C)cc32)C(O)C(O)C1O (stereo partly specified)
GI50 (EKVX NSCLC): 0.198 µM | TGI (EKVX NSCLC): 3.04 µM | GI50 (HOP-92 NSCLC): 0.0623 µM | TGI (HOP-92 NSCLC): 0.194 µM | GI50 (KM12 colon): 0.202 µM | TGI (KM12 colon): 0.624 µM | GI50 (LOX IMVI melanoma): < 0.0146 µM | TGI (LOX IMVI melanoma): < 0.0251 µM | GI50 (MOLT-4 leukemia): 1.03 µM | GI50 (OVCAR-8 ovarian): 0.0294 µM | TGI (OVCAR-8 ovarian): 0.0873 µM | GI50 (RXF 393 renal): < 0.0267 µM | TGI (RXF 393 renal): 0.346 µM | GI50 (SF-295 CNS): 0.0817 µM | TGI (SF-295 CNS): 0.239 µM | GI50 (SK-OV-3 ovarian): 0.0576 µM | TGI (SK-OV-3 ovarian): 12.3 µM | GI50 (UACC-257 melanoma): < 0.0139 µM

CS(=O)(=O)CCNCc1coc(-c2ccc3ncnc(Nc4ccc(OCc5ccccc5)cc4)c3c2)c1
GI50 (EKVX NSCLC): 1.25 µM | TGI (EKVX NSCLC): > 25 µM | GI50 (HOP-92 NSCLC): 2.62 µM | TGI (HOP-92 NSCLC): 17.3 µM | GI50 (KM12 colon): 4.68 µM | TGI (KM12 colon): 11.9 µM | GI50 (LOX IMVI melanoma): 4.27 µM | TGI (LOX IMVI melanoma): 8.81 µM | GI50 (MOLT-4 leukemia): 5.2 µM | TGI (MOLT-4 leukemia): 16.3 µM | GI50 (OVCAR-8 ovarian): 8.66 µM | TGI (OVCAR-8 ovarian): > 25 µM | GI50 (RXF 393 renal): 2.91 µM | TGI (RXF 393 renal): 7.27 µM | GI50 (SF-295 CNS): 4.39 µM | TGI (SF-295 CNS): 9.19 µM | GI50 (SK-OV-3 ovarian): 1.71 µM | TGI (SK-OV-3 ovarian): > 16.2 µM | GI50 (UACC-257 melanoma): 3.67 µM | TGI (UACC-257 melanoma): 7.39 µM

C[C@]12CCc3sc(Nc4ccc(OC(F)(F)F)cc4)nc3C1=CC[C@@H]1[C@@H]2CC[C@]2(C)C(=O)CC[C@@H]12
GI50 (EKVX NSCLC): 2.63 µM | TGI (EKVX NSCLC): 17.4 µM | GI50 (HOP-92 NSCLC): 1.43 µM | TGI (HOP-92 NSCLC): 3.44 µM | GI50 (KM12 colon): 3.56 µM | TGI (KM12 colon): 15 µM | GI50 (LOX IMVI melanoma): 1.74 µM | TGI (LOX IMVI melanoma): 3.18 µM | GI50 (MOLT-4 leukemia): 1.53 µM | TGI (MOLT-4 leukemia): 11.9 µM | GI50 (OVCAR-8 ovarian): 3.49 µM | TGI (OVCAR-8 ovarian): 25 µM | GI50 (RXF 393 renal): 0.5 µM | TGI (RXF 393 renal): 2.21 µM | GI50 (SF-295 CNS): 0.7 µM | TGI (SF-295 CNS): 2.44 µM | GI50 (SK-OV-3 ovarian): 3.04 µM | TGI (SK-OV-3 ovarian): 10 µM | GI50 (UACC-257 melanoma): 4.89 µM | TGI (UACC-257 melanoma): 28.8 µM

O=C1C=CC(=O)C2C1C1(Cl)C(Cl)=C(Cl)C2(Cl)C1(Cl)Cl (stereo unspecified)
GI50 (EKVX NSCLC): 1.56 µM | TGI (EKVX NSCLC): 7.48 µM | GI50 (HOP-92 NSCLC): 1.69 µM | TGI (HOP-92 NSCLC): 6.88 µM | GI50 (KM12 colon): 2.63 µM | TGI (KM12 colon): 8.95 µM | GI50 (LOX IMVI melanoma): 4.05 µM | TGI (LOX IMVI melanoma): 16.2 µM | GI50 (MOLT-4 leukemia): 2.54 µM | TGI (MOLT-4 leukemia): 14.4 µM | GI50 (OVCAR-8 ovarian): 10.1 µM | TGI (OVCAR-8 ovarian): 48.6 µM | GI50 (RXF 393 renal): 3.66 µM | TGI (RXF 393 renal): 12 µM | GI50 (SF-295 CNS): 1.91 µM | TGI (SF-295 CNS): 6.62 µM | GI50 (SK-OV-3 ovarian): 7.85 µM | TGI (SK-OV-3 ovarian): 21.1 µM | GI50 (UACC-257 melanoma): 6.82 µM | TGI (UACC-257 melanoma): 20 µM

CCOc1cc(C(C)(C)C)ccc1C1=N[C@H](c2ccc(Cl)cc2)[C@H](c2ccc(Cl)cc2)N1C(=O)N1CCN(CC#Cc2cccc3c2CN([C@@H]2CCC(=O)NC2=O)C3=O)CC1
GI50 (EKVX NSCLC): 3.98 µM | TGI (EKVX NSCLC): > 100 µM | GI50 (HOP-92 NSCLC): 0.0372 µM | TGI (HOP-92 NSCLC): 8.51 µM | GI50 (KM12 colon): 2.22 µM | TGI (KM12 colon): > 100 µM | GI50 (LOX IMVI melanoma): 2.05 µM | TGI (LOX IMVI melanoma): 22.7 µM | GI50 (MOLT-4 leukemia): 0.019 µM | TGI (MOLT-4 leukemia): > 100 µM | GI50 (OVCAR-8 ovarian): 0.157 µM | TGI (OVCAR-8 ovarian): > 31.8 µM | GI50 (RXF 393 renal): 2.12 µM | TGI (RXF 393 renal): > 51.6 µM | GI50 (SF-295 CNS): 2.53 µM | TGI (SF-295 CNS): 19.2 µM | GI50 (SK-OV-3 ovarian): 6.95 µM | TGI (SK-OV-3 ovarian): > 88.9 µM | GI50 (UACC-257 melanoma): 1.85 µM | TGI (UACC-257 melanoma): 14.8 µM

CCN(CC)CCCC(CCl)Nc1ccnc2cc(Cl)ccc12 (stereo unspecified)
GI50 (EKVX NSCLC): 30.4 µM and 29.1 µM | TGI (EKVX NSCLC): 87.2 µM and > 100 µM | GI50 (HOP-92 NSCLC): 11.2 µM and 14.5 µM | TGI (HOP-92 NSCLC): 36.6 µM and 42.1 µM | GI50 (KM12 colon): 16.7 µM and 16.2 µM | TGI (KM12 colon): 34 µM and 50.6 µM | GI50 (LOX IMVI melanoma): 8.43 µM and 8.53 µM | TGI (LOX IMVI melanoma): 42.3 µM and 31.4 µM | TGI (MOLT-4 leukemia): 81.1 µM and > 34.3 µM | GI50 (OVCAR-8 ovarian): 20.2 µM and 19.4 µM | TGI (OVCAR-8 ovarian): 54.8 µM and 71.3 µM | GI50 (RXF 393 renal): 4.95 µM and 10.6 µM | TGI (RXF 393 renal): 24.5 µM and > 49.1 µM | GI50 (SF-295 CNS): 13.1 µM and 12.6 µM | TGI (SF-295 CNS): 26.3 µM and 28.6 µM | GI50 (SK-OV-3 ovarian): > 100 µM | TGI (SK-OV-3 ovarian): > 100 µM | GI50 (UACC-257 melanoma): 3.78 µM and 14.6 µM | TGI (UACC-257 melanoma): 15.3 µM and 31.1 µM

NC(CCCC(N)P(=O)(O)O)P(=O)(O)O (stereo unspecified)
TGI (EKVX NSCLC): > 100 µM | TGI (HOP-92 NSCLC): > 100 µM | TGI (KM12 colon): > 100 µM | TGI (LOX IMVI melanoma): > 100 µM | TGI (MOLT-4 leukemia): > 100 µM | TGI (OVCAR-8 ovarian): > 100 µM | TGI (RXF 393 renal): > 100 µM | TGI (SF-295 CNS): > 100 µM | TGI (SK-OV-3 ovarian): > 100 µM | TGI (UACC-257 melanoma): > 100 µM

Nc1n[nH]c2cccc(C#Cc3cccc(NC(=O)c4cccc(C(F)(F)F)c4)c3)c12
GI50 (EKVX NSCLC): 6.2 µM | TGI (EKVX NSCLC): 19.8 µM | GI50 (HOP-92 NSCLC): 1.9 µM | TGI (HOP-92 NSCLC): 5.24 µM | GI50 (KM12 colon): 4.52 µM | TGI (KM12 colon): 19.8 µM | GI50 (LOX IMVI melanoma): 1.53 µM | TGI (LOX IMVI melanoma): 3.41 µM | GI50 (MOLT-4 leukemia): 2.21 µM | TGI (MOLT-4 leukemia): 13.3 µM | GI50 (OVCAR-8 ovarian): 4.82 µM | TGI (OVCAR-8 ovarian): 16.6 µM | GI50 (RXF 393 renal): 1.65 µM | TGI (RXF 393 renal): 3.97 µM | GI50 (SF-295 CNS): 2.68 µM | TGI (SF-295 CNS): 10.5 µM | GI50 (SK-OV-3 ovarian): 3.19 µM | TGI (SK-OV-3 ovarian): 10.2 µM | GI50 (UACC-257 melanoma): 4.3 µM | TGI (UACC-257 melanoma): 15.8 µM
